Patent US20230202989A1, “COMPOUNDS” (JANSSEN PHARMACEUTICA NV, priority 2020, published 2023)

What was measured:
IL-1β = assay: PBMC assay: inhibition of IL-1β release after LPS stimulation (MSD); type: cell-based; conditions: Homo sapiens, PBMC, 6 h, human PBMCs, 100 ng/ml LPS for 6 hrs, MSD, 96 well plates; read-out: IL1β IC50
Method: Peripheral venous blood s collected from health individuals and human peripheral blood mononuclear cells (PBMCs) ere isolated from blood by Ficoll Histopaque (Sigma-Aldrich, A0561) density gradient centrifugation. After isolation, PBMCs were stored in liquid nitrogen for later use. Upon thawing, PBMC cell viability was determined in growth medium (RPMI media supplemented with 10% fetal bovine serum, 1% Pen-Strep and 1% L-glutamine). […] PBMCs were added at a density of 7.5×10^4 cells per well and incubated for 30 min in a 5% CO2 incubator at 37° C. LPS stimulation was performed by addition of 100 ng/ml LPS (final concentration, Invivogen, tlrl-smlps) for 6 hrs followed by collection of cellular supernatant and the analysis of IL-1β (μM) and TNF cytokines levels (μM) via MSD technology according to manufacturers' guidelines (MSD, K151A0H).
(§1) The IC50 values (for IL-1β) and EC50 values (TNF) were obtained on compounds of the invention/examples, and are depicted in the following table: […]

TNF = assay: PBMC assay: TNF cytokine levels after LPS stimulation (MSD); type: cell-based; conditions: Homo sapiens, PBMC, 6 h, human PBMCs, 100 ng/ml LPS for 6 hrs
Method: Peripheral venous blood s collected from health individuals and human peripheral blood mononuclear cells (PBMCs) ere isolated from blood by Ficoll Histopaque (Sigma-Aldrich, A0561) density gradient centrifugation. After isolation, PBMCs were stored in liquid nitrogen for later use. Upon thawing, PBMC cell viability was determined in growth medium (RPMI media supplemented with 10% fetal bovine serum, 1% Pen-Strep and 1% L-glutamine). Compounds were spotted in a 1:3 serial dilution in DMSO and diluted to the final concentration in 30 μl medium in 96 well plates (Falcon, 353072). PBMCs were added at a density of 7.5×10^4 cells per well and incubated for 30 min in a 5% CO2 incubator at 37° C. LPS stimulation was performed by addition of 100 ng/ml LPS (final concentration, Invivogen, tlrl-smlps) for 6 hrs followed by collection of cellular supernatant and the analysis of IL-1β (μM) and TNF cytokines levels (μM) via MSD technology according to manufacturers' guidelines (MSD, K151A0H).
as §1

IC50 (IL-1β) [µM] | EC50 (TNF) [µM] | SMILES
6.32 | > 20 | CC(C)c1nn(CC(=O)N[C@H]2COC[C@H](O)C2)c(=O)c2ccc(C(F)(F)F)cc12 (mixture of isomers) [Final Cpd X148]
0.493 | > 20 | CC(C)c1nn(CC(=O)N[C@H]2CC[C@@H]2O)c(=O)c2ccc(C(F)(F)F)cc12 [Final Cpd X56]
> 20 | > 20 | CO[C@H]1CC[C@H](NC(=O)Cn2nc(C(C)C)c3cc(C(F)(F)F)ccc3c2=O)CC1 [Final Cpd X177]
0.27 | 8.08 | CC(C)c1nn(CC(=O)Nc2ccc3nncn3c2)c(=O)c2ccc(C(C)(C)C)cc12 [X-1048]
0.033 | 19.7 | CC(C)c1nn(CC(=O)Nc2ccc3nncn3c2)c(=O)c2ccc(C(C)(C)F)cc12 [X-1076]
> 10 | > 10 | CCc1nn(CC(=O)N[C@H]2CC[C@H](O)CC2)c(=O)c2ccc(C)cc12 [Final Cpd 26, trans-2-(6-methyl-4-ethyl-1-oxo-phthalazin-2-yl)-N-(4-hydroxycyclohexyl)acetamide]
1.12 | > 20 | CC(C)c1nn(CC(=O)Nc2ccc3nc(C#N)cn3c2)c(=O)c2ccc(C(F)(F)F)cc12 [Final Cpd X97]
7.37 | > 20 | CC(=O)N1C[C@H](O)C[C@H](NC(=O)Cn2nc(C(C)C)c3cc(C(F)(F)F)ccc3c2=O)C1 (single isomer, unassigned) [Final Cpd X150]
0.018 | > 20 | CCN1CC[C@H](O)[C@H](NC(=O)Cn2nc(C(C)C)c3cc(Br)ccc3c2=O)C1 (stereo in doubt) [X-1083]
> 20 | > 20 | CCN1CC[C@H](NC(=O)Cn2nc(C(C)C)c3cc(C(F)(F)F)ccc3c2=O)[C@@H](O)C1 (single isomer, unassigned) [Final Cpd X172]
1.4 | > 20 | Cn1nc(NC(=O)Cn2nc(C3CC3)c3cc(Cl)ccc3c2=O)ccc1=O [X-1072]
0.347 | 12.6 | CC(C)c1nn(CC(=O)Nc2cc(C(F)F)[nH]n2)c(=O)c2ccc(C(F)(F)F)cc12 [Final Cpd X39]
0.156 | > 20 | CC(C)c1nn(CC(=O)Nc2ccc3nnnn3n2)c(=O)c2ccc(C(F)(F)F)cc12 [Final Cpd X18]
0.032 | > 20 | CC(C)c1nn(CC(=O)N[C@@H]2CCCN(C3CC3)C2)c(=O)c2ccc(Br)cc12 [X-1035]
2.94 | > 20 | CC(C)c1nn(CC(=O)NC2(C)CC(F)(F)C2)c(=O)c2ccc(C(F)(F)F)cc12 [Final Cpd X126]
1.31 | > 20 | CC(C)c1nn(CC(=O)Nc2ccc3nncn3c2)c(=O)c2ccc(C3CCC3)cc12 [X-1078]
1.41 | > 20 | CC(C)c1nn(CC(=O)N[C@H]2CN(C3COC3)CC[C@H]2O)c(=O)c2ccc(C(F)(F)F)cc12 [Final Cpd X104]
0.728 | > 20 | Cc1nnc2n1CC(NC(=O)Cn1nc(C(C)C)c3cc(C(F)(F)F)ccc3c1=O)CC2 (stereo not drawn) [Final Cpd X68]
4.99 | > 20 | CC(C)(F)c1nn(CC(=O)N[C@H]2C[C@@](C)(O)C2)c(=O)c2ccc(C(F)(F)F)cc12 [Final Cpd X145]
0.924 | > 20 | CC(C)c1nn(CC(=O)NC2CCc3nncn3C2)c(=O)c2ccc(C(F)(F)F)cc12 (stereo not drawn) [Final Cpd X89]
0.175 | > 20 | CCC(C)c1nn(CC(=O)Nc2ccc3nncn3c2)c(=O)c2ccc(C(F)(F)F)cc12 (stereo not drawn) [Final Cpd X24]
0.09 | > 20 | CCN1CCC[C@@H](NC(=O)Cn2nc(C(C)C)c3cc(C(F)(F)F)ccc3c2=O)C1 [Final Cpd X9]
13.4 | > 20 | CC(C)c1nn(CC(=O)Nc2ccc3c(ncn3C)n2)c(=O)c2ccc(C(F)(F)F)cc12 [Final Cpd X160]
2.13 | > 20 | CC(C)c1nn(CC(=O)Nc2ccc3nc(C(F)F)cn3n2)c(=O)c2ccc(C(F)(F)F)cc12 [Final Cpd X118]
